According to the NIST ThermoML archive (doi:10.1016/j.fluid.2005.06.022):
Numbers after ± are expanded uncertainties.

Tests used:
[1] = Liquid; for molar volume: 101.33 kPa
[2] = refractive index (Na D-line) (dimensionless); conditions: 101.33 kPa, Liquid, Standard Abbe refractometry

Structure (SMILES)	molar volume ([1]; 293.15 K) [m3/mol]	refractive index ([2]; 293.15 K)	molar volume ([1]; 298.15 K) [m3/mol]	refractive index ([2]; 298.15 K)	other results
N#Cc1cnccn1 [2-cyanopyrazine]	8.952e-05 ± 5.2e-07	1.534 ± 0.0012	–	–	vapor or sublimation pressure ([1]; 476.05 K): 94.7 ± 4.8 kPa
Cc1cnccn1 [2-methylpyrazine]	9.138e-05 ± 5.1e-07	1.505 ± 0.0012	–	–	vapor or sublimation pressure ([1]; 396.65 K): 94.7 ± 4.8 kPa
C=CC#N [acrylonitrile]	–	–	6.629e-05 ± 3.6e-07	1.3888 ± 0.0012	vapor or sublimation pressure ([1]; 348.55 K): 94.7 ± 4.8 kPa
C1CCCCC1 [cyclohexane]	–	–	0.0001087 ± 5.9e-07	1.4235 ± 0.0012	vapor or sublimation pressure ([1]; 351.85 K): 94.7 ± 4.8 kPa
O=C1CCCCC1 [cyclohexanone]	0.0001038 ± 5.7e-07	1.451 ± 0.0012	–	–	vapor or sublimation pressure ([1]; 426.35 K): 94.7 ± 4.8 kPa; vapor or sublimation pressure ([1]; 426.85 K): 94.7 ± 4.8 kPa
ClC(Cl)(Cl)Cl [tetrachloromethane]	–	–	9.708e-05 ± 6e-07	1.4574 ± 0.0012	vapor or sublimation pressure ([1]; 347.85 K): 94.7 ± 4.8 kPa
